The structures appear in SMILES notation.

In general, melting point refers to the temperature of the solid-liquid transition. Regarding `CN(C(=O)CN1CCN(Cc2ccccc2)CC1)c1ccc(N/C(=C2\C(=O)Nc3ccc([N+](=O)[O-])cc32)c2ccccc2)cc1` [Example 104, (Z)-3-{1-[4-(N-(4-benzylpiperazinomethylcarbonyl)-N-methyl-amino)-phenylamino]-1-phenyl-methylidene}-5-nitro-2-indolinone], the melting point was in the range of 201 to 203 °C. `O=C1Nc2ccc([N+](=O)[O-])cc2/C1=C(/Nc1ccc(CN2CCC2)cc1)c1ccccc1` [Example 273, (Z)-3-{1-[4-(Azetidin-1-yl-methyl)-phenylamino]-1-phenyl-methylidene}-5-nitro-2-indolinone] had a melting point of 228 to 229 °C.

Consider `CC(=O)NCc1ccc(/C(Nc2cccc(N(CCCN(C)C)S(C)(=O)=O)c2)=C2/C(=O)Nc3ccccc32)cc1` [Example 425, (Z)-3-{1-[3-(N-(3-dimethylaminopropyl)-N-methylsulphonyl-amino)-phenylamino]-1-(4-acetylaminomethyl-phenyl)-methylidene}-2-indolinone], for which the melting point was determined as 208 °C. The compound `CN(CC(=O)O)S(=O)(=O)c1ccc(N/C(=C2\C(=O)Nc3ccc([N+](=O)[O-])cc32)c2ccccc2)cc1` [Example 414, (Z)-3-{1-[4-(N-carboxymethyl-N-methyl-aminosulphonyl)-phenylamino]-1-phenyl-methylidene}-5-nitro-2-indolinone] yielded a melting point of 259 to 260 °C. For `Cc1ccc(/C(Nc2ccc(CN(C)C)cc2)=C2/C(=O)Nc3ccccc32)cc1` [Example 211, (Z)-3-[1-(4-dimethylaminomethyl-phenylamino)-1-(p-tolyl)-methylidene]-2-indolinone] the value was 208 to 209 °C; for `COCCNCC(=O)N(C)c1ccc(N/C(=C2\C(=O)Nc3ccccc32)c2ccccc2)cc1` [Example 371, (Z)-3-{1-[4-(N-(2-methoxyethylaminomethylcarbonyl)-N-methyl-amino)-phenylamino]-1-phenyl-methylidene}-2-indolinone], 186 to 188 °C; for `CN(C)C(=O)CN(c1ccc(N/C(=C2\C(=O)Nc3ccccc32)c2ccccc2)cc1)S(=O)(=O)Cc1ccccc1` [Example 207, (Z)-3-{1-[4-(N-dimethylaminocarbonylmethyl-N-benzylsulphonyl-amino)-phenylamino]-1-phenyl-methylidene}-2-indolinone], 133 to 135 °C. `CCS(=O)(=O)N(CC(N)=O)c1ccc(N/C(=C2\C(=O)Nc3ccccc32)c2ccccc2)cc1` [Example 299, (Z)-3-{1-[4-(N-aminocarbonylmethyl-N-ethylsulphonyl-amino)-phenylamino]-1-phenyl-methylidene}-2-indolinone] returned a melting point of 259 °C. As to `COC(=O)c1ccc(/C(Nc2ccc(CN3CCCCC3)cc2)=C2/C(=O)Nc3ccc([N+](=O)[O-])cc32)cc1` [Example 444, (Z)-3-[1-(4-piperidinomethyl-phenylamino)-1-(4-methoxycarbonyl-phenyl)-methylidene]-5-nitro-2-indolinone], the melting point lay in the range of 178 to 183 °C. To `CN(C)CCN(C=O)c1ccc(N/C(=C2\C(=O)Nc3ccccc32)c2ccccc2)cc1` [Example 339, (Z)-3-{1-[4-(N-(2-dimethylaminoethyl)-N-formyl-amino)-phenylamino]-1-phenyl-methylidene}-2-indolinone] belongs 246 to 248 °C. On to `O=CNc1ccc(N/C(=C2\C(=O)Nc3ccc([N+](=O)[O-])cc32)c2ccccc2)cc1` [Example 92, (Z)-3-[1-(4-formylamino-phenylamino)-1-phenyl-methylidene]-5-nitro-2-indolinone], for which the melting point was 355 to 356 °C (dec.). On to `CC(=O)N(C)c1ccc(N/C(=C2\C(=O)Nc3ccc([N+](=O)[O-])cc32)c2ccccc2)cc1` [Example 98, (Z)-3-{1-[4-(N-acetyl-N-methyl-amino)-phenylamino]-1-phenyl-methylidene}-5-nitro-2-indolinone], for which the melting point is 305 to 307 °C. To `CN(C(=O)CN1CCNCC1)c1ccc(N/C(=C2\C(=O)Nc3ccccc32)c2ccccc2)cc1.Cl.Cl` belongs 255 to 258 °C (dec.). On to `CS(=O)(=O)N(CC(N)=O)c1cccc(N/C(=C2\C(=O)Nc3ccccc32)c2ccc(CN)cc2)c1` [Example 416, (Z)-3-{1-[3-(N-aminocarbonylmethyl-N-methylsulphonyl-amino)-phenylamino]-1-(4-aminomethyl-phenyl)-methylidene}-2-indolinone], for which the melting point was found to be 167 °C. To `CCCS(=O)(=O)N(CCN(C)C)c1ccc(N/C(=C2\C(=O)Nc3ccccc32)c2ccccc2)cc1` [Example 311, (Z)-3-{1-[4-(N-(2-dimethylaminoethyl)-N-propylsulphonyl-amino)-phenylamino]-1-phenyl-methylidene}-2-indolinone] belongs 245 °C. To `CCN(CC)CC(=O)N(C)c1ccc(N/C(=C2\C(=O)Nc3ccccc32)c2ccccc2)cc1` [Example 49, (Z)-3-{1-[4-(N-Diethylaminomethylcarbonyl-N-methyl-amino)-phenylamino]-1-phenyl-methylidene}-2-indolinone] belongs 242 to 247 °C.

`CN(C)CCNC(=O)CN(c1cccc(N/C(=C2\C(=O)Nc3ccccc32)c2ccccc2)c1)S(C)(=O)=O` [Example 322, (Z)-3-{1-[3-(N-(2-dimethylamino-ethylaminocarbonylmethyl)-N-methylsulphonyl-amino)-phenylamino]-1-phenyl-methylidene}-2-indolinone] showed a melting point of 179 to 181 °C. To `O=C1Nc2ccc([N+](=O)[O-])cc2/C1=C(/Nc1ccc(CCN2CC=CCC2)cc1)c1ccccc1` [Example 269, (Z)-3-{1-[4-(2-(3,6-Dihydro-2H-pyridin-1-yl)-ethyl)-phenylamino]-1-phenyl-methylidene}-5-nitro-2-indolinone] belongs 249 to 254 °C (dec.); to `CCOC(=O)CN(c1ccc(N/C(=C2\C(=O)Nc3ccccc32)c2ccccc2)cc1)S(=O)(=O)CC` [Example 297, (Z)-3-{1-[4-(N-ethoxycarbonylmethyl-N-ethylsulphonyl-amino)-phenylamino]-1-phenyl-methylidene}-2-indolinone], 228 to 230 °C. Regarding `O=C1Nc2ccc([N+](=O)[O-])cc2/C1=C(/Nc1ccc(CNc2ccccn2)cc1)c1ccccc1` [Example 279, (Z)-3-{1-[4-(pyridine-2-ylaminomethyl)-phenylamino]-1-phenyl-methylidene}-5-nitro-2-indolinone], the melting point lay in the range of 266 to 268 °C. To `O=C1Nc2ccc([N+](=O)[O-])cc2/C1=C(/Nc1ccc(CN2CCC(O)CC2)cc1)c1ccccc1` [Example 168, (Z)-3-{1-[4-(4-hydroxypiperidinomethyl)-phenylamino]-1-phenyl-methylidene}-5-nitro-2-indolinone] belongs 155 °C. To `CNC(=N)c1cccc(N/C(=C2\C(=O)Nc3ccccc32)c2ccccc2)c1` [Example 65, (Z)-3-{1-[3-(N-methylcarbamimidoyl)-phenylamino]-1-phenyl-methylidene}-2-indolinone] belongs 248 to 250 °C. `CN(C)C(=O)CN(c1ccc(N/C(=C2\C(=O)Nc3ccccc32)c2ccccc2)cc1)S(C)(=O)=O` [Example 193, (Z)-3-{1-[4-(N-dimethylaminocarbonylmethyl-N-methylsulphonylamino)-phenylamino]-1-phenyl-methylidene}-2-indolinone] returned a melting point of 260 to 262 °C. Consider `O=C1Nc2ccc([N+](=O)[O-])cc2/C1=C(/Nc1cccc(CN2CCCCC2)c1)c1ccccc1` [Example 108, (Z)-3-[1-(3-piperidinomethyl-phenylamino)-1-phenyl-methylidene]-5-nitro-2-indolinone], for which the melting point lay in the range of 214 to 215 °C. Take `CC(C)CNCc1ccc(N/C(=C2\C(=O)Nc3ccc([N+](=O)[O-])cc32)c2ccccc2)cc1` [Example 164, (Z)-3-[1-(4-isobutylaminomethyl-phenylamino)-1-phenyl-methylidene]-5-nitro-2-indolinone]: the melting point was 208 °C. To `CC(C)(C)OC(=O)NCc1ccc(N/C(=C2\C(=O)Nc3ccc([N+](=O)[O-])cc32)c2ccc(CN)cc2)cc1` [Example 148, (Z)-3-[1-(4-tert.butoxycarbonylaminomethyl-phenylamino)-1-(4-aminomethyl-phenyl)-methylidene]-5-nitro-2-indolinone] belongs 220 to 223 °C. To `CCN(CC)CCc1ccc(N/C(=C2\C(=O)Nc3ccc([N+](=O)[O-])cc32)c2ccccc2)cc1` [Example 130, (Z)-3-{1-[4-(2-diethylamino-ethyl)-phenylamino]-1-phenyl-methylidene}-5-nitro-2-indolinone] belongs 167 to 168 °C; to `CN(C(=O)CN1CCCC1)c1ccc(N/C(=C2\C(=O)Nc3ccccc32)c2ccccc2)cc1` [Example 369, (Z)-3-{1-[4-(N-(pyrrolidin-1-ylmethylcarbonyl)-N-methyl-amino)-phenylamino]-1-phenyl-methylidene}-2-indolinone], 253 to 255 °C; to `CNCCc1ccc(N/C(=C2\C(=O)Nc3ccc([N+](=O)[O-])cc32)c2ccccc2)cc1` [Example 254, (Z)-3-{1-[4-(2-methylamino-ethyl)-phenylamino]-1-phenyl-methylidene}-5-nitro-2-indolinone], 250 to 252 °C. To `CN(C(=O)CN)c1ccc(N/C(=C2\C(=O)Nc3ccccc32)c2ccccc2)cc1` [Example 366, (Z)-3-{1-[4-(N-aminomethylcarbonyl-N-methyl-amino)-phenylamino]-1-phenyl-methylidene}-2-indolinone] belongs 238 to 239 °C. `CCOC(=O)CN(C)S(=O)(=O)c1ccc(N/C(=C2\C(=O)Nc3ccccc32)c2ccccc2)cc1` [Example 408, (Z)-3-{1-[4-(N-ethoxycarbonylmethyl-N-methyl-aminosulphonyl)-phenylamino]-1-phenyl-methylidene}-2-indolinone] displayed a melting point of 178 to 180 °C. `COc1ccc(/C(Nc2ccc(CN3CCCCC3)cc2)=C2/C(=O)Nc3ccc([N+](=O)[O-])cc32)cc1` [Example 441, (Z)-3-[1-(4-piperidinomethyl-phenylamino)-1-(4-methoxyphenyl)-methylidene]-5-nitro-2-indolinone] registered a melting point of 230 to 233 °C.

These data come from patent publication US6855710B2, “Substituted indolines with an inhibitory effect on various kinases and complexes of CDKs” (Boehringer Ingelheim Pharma KG, priority 1998, dated 2005).
